Where two headings read alike, the source gives them in different places.
What was measured:
hOCT1 [1] = biological target: T1, hOCT1 (Homo sapiens, UniProt O15245); experiment: [3H]MPP+ uptake inhibition assay, HEK293 cells stably expressing hOCT1; type: cell-based; conditions: for Effect on substrate uptake by hOCT1 (in words): [3H]MPP+ uptake, HEK293 hOCT1
T1 construct: expressed in transfected cells
T1 sequence (O15245 1-554): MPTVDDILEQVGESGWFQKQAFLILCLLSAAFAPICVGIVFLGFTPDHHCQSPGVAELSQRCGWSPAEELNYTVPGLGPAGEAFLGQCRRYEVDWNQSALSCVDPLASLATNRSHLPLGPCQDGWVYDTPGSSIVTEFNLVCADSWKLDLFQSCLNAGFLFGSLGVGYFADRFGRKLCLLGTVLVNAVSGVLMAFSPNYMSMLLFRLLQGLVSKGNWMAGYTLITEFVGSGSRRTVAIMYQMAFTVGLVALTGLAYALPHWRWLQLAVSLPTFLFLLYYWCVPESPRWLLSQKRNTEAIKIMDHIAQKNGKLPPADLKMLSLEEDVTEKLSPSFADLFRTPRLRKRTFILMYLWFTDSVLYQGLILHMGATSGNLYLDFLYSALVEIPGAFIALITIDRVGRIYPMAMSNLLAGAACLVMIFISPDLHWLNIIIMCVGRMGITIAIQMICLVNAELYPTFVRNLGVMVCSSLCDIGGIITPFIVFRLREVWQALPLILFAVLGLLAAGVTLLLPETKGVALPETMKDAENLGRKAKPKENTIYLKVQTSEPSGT
Procedure: (§1) HEK293 cells were transfected with a plasmid, encoding the transporter of interest and an N-terminal YFP-tag, carried out using jetPRIME ^© (Polyplus Transfection; (VWR International GmbH, Vienna, Austria)) reagent (for a 10 cm dish with 1–2 × 10^6 cells in 10 mL serum containing medium at 60–80% confluency: 500 μ L jetPRIME ^© buffer, 10 μ g DNA and 20 μ L jetPRIME ^© reagent) and selection pressure maintained for two weeks [2, 54, 55]. Subsequently, 500,000 cells were FACS-sorted (fluorescence-activated cell sorting) according to expression level to establish cell lines stably expressing the protein of interest. […] For uptake inhibition assays, cells were cultured at a subconfluent (80–90% density) state in high-glucose Dulbecco’s Modified Eagle Medium (DMEM ), enriched with 10% heat-inactivated Fetal Bovine Serum (FBS) and penicillin/streptomycin (PS; 100 U × 100 mL ^−1 , each). Selection pressure was maintained by the addition of geneticin (50 mg × mL ^−1 ) at 37 ^∘ C and 5% CO 2 in a humidified incubator. At a density of 60,000 cells per well, HEK293 cells expressing the respective transporter were seeded onto poly-D-lysine-coated wells 24 h prior to uptake inhibition experiments in a final volume of 200 μ L per well.
(§2) Prior to the addition of the respective compounds, DMEM was removed from all wells and replaced with 200 μ L of Krebs-HEPES-buffer (KHB; 10 mM HEPES, 120 mM NaCl, 3 mM KCl, 2 mM CaCl 2 , 2 mM MgSO 4 and 20 mM D-glucose, pH adjusted to 7.3) at room temperature. Cells were exposed to a pre-incubation solution containing the compound of interest in the respective concentration (dissolved in Krebs-HEPES-buffer) for 10 min with a total volume of 50 μ L, which was then replaced with a 50 μ L uptake solution containing 0.05 μ M of tritiated 1-methyl-4-phenylpyridinium ([ ^3 H]MPP ^+ ) as substrate, and the compound of interest in respective concentrations, for 10 minutes each. Finally, uptake was terminated by washing with 200 μ L of ice-cold (4 ^∘ C) KHB, after which cells were lysed with 200 μ L of 1% sodium dodecyl sulphate (SDS). After transferring the solution of each well into 6 mL counting vials containing 2 mL of scintillation cocktail, the vials were measured with a beta-scintillation counter for quantification of the uptake of tritiated substrate. […] To obtain specific data, non-specific uptake was assessed in the presence of 100 μ M D22 and subtracted from the total data. The 100% values were defined as uptake in the absence of a tested substance, defining maximal uptake capacity. Inhibitions of the compound of interest were described as a percentage of the maximal uptake capacity.
(§3) Half-maximal inhibitory concentration ( IC50 ) values of each substance were calculated and plotted using GraphPad Prism 8.4.3 (GraphPad Software Inc., San Diego, CA, USA). IC50 was determined by non-linear regression, solving the equation Y=Bottom+(Top−Bottom)/(1+10^X−LogEC50) . […] All data stem from a minimum of three separate experiments (n≥ 3) executed in triplicates and are shown as mean ± SD.

hOCT2 = biological target: T2, hOCT2 (Homo sapiens, UniProt O15244); experiment: [3H]MPP+ uptake inhibition assay, HEK293 cells stably expressing hOCT2; type: cell-based; conditions: for Effect on substrate uptake by hOCT2 (in words): [3H]MPP+ uptake, HEK293 hOCT2
T2 construct: expressed in transfected cells
T2 sequence (O15244 1-555): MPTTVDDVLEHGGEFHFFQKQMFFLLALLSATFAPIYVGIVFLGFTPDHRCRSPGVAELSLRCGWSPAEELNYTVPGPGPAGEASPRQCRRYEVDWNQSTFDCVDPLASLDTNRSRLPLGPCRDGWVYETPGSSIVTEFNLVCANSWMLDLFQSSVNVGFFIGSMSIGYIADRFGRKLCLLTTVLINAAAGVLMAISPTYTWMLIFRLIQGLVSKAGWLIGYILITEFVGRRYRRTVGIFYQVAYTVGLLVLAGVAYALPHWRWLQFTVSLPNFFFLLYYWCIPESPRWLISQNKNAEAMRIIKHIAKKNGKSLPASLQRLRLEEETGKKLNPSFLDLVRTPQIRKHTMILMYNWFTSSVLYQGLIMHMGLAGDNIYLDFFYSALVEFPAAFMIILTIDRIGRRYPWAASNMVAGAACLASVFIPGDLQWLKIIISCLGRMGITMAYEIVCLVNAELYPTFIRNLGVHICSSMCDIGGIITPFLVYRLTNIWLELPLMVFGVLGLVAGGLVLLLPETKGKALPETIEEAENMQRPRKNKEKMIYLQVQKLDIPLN
Procedure: as §1, §2, §3

hOCT3 = biological target: T3, hOCT3 (Homo sapiens, UniProt O75751); experiment: [3H]MPP+ uptake inhibition assay, HEK293 cells stably expressing hOCT3; type: cell-based; conditions: for Effect on substrate uptake by hOCT3 (in words): [3H]MPP+ uptake, HEK293 hOCT3
T3 construct: expressed in transfected cells
T3 sequence (O75751 1-556): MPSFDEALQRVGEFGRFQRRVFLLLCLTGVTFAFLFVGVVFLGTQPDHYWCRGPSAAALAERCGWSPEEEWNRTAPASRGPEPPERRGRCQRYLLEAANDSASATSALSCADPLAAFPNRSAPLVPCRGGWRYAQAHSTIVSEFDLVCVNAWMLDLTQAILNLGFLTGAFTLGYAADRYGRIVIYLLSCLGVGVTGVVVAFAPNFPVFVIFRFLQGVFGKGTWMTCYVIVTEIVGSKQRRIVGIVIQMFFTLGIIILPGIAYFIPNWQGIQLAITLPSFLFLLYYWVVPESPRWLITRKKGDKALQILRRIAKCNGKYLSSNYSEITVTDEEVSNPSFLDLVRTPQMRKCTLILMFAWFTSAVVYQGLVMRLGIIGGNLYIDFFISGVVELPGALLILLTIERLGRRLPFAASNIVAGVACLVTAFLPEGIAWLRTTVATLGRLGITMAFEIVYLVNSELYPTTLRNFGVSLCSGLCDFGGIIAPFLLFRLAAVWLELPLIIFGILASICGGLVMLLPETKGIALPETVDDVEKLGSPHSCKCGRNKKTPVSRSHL
Procedure: as §1, §2, §3

hPMAT = biological target: T4, hPMAT (Homo sapiens, UniProt Q7RTT9); experiment: [3H]MPP+ uptake inhibition assay, HEK293 cells stably expressing hPMAT; type: cell-based; conditions: for Effect on substrate uptake by hPMAT (in words): [3H]MPP+ uptake, HEK293 hPMAT
T4 construct: expressed in transfected cells
T4 sequence (Q7RTT9 1-530): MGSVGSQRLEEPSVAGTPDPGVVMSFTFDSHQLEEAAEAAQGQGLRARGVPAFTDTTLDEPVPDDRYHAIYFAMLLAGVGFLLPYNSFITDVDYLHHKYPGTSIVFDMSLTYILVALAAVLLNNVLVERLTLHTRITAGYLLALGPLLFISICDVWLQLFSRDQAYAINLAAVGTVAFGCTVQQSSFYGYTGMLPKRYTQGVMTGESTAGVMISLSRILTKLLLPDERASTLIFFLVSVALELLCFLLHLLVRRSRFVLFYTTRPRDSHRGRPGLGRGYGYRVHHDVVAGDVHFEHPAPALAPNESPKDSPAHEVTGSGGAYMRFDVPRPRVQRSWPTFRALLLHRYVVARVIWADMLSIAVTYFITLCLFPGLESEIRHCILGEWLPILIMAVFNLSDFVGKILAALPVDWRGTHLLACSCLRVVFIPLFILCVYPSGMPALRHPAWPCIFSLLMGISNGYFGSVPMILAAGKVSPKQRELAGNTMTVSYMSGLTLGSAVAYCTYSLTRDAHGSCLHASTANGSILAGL
Procedure: as §1, §2, §3

hOCT1 [2] = biological target: T1, hOCT1; conditions: read-out: IC50 literature hOCT1; Table S1; supplementary reference list; cited from earlier work
[3] = HEK293 stably expressing hPMAT, 0.05 μM [3H]MPP+, 10 min pre-incubation, 10 min uptake, brackets in Table S1 = 95%-CI, n.s. = non-significant
[4] = HEK293 stably expressing hOCT1, 0.05 μM [3H]MPP+, 10 min pre-incubation, 10 min uptake, brackets in Table S1 = 95%-CI, n.s. = non-significant
[5] = HEK293 stably expressing hOCT2, 0.05 μM [3H]MPP+, 10 min pre-incubation, 10 min uptake, brackets in Table S1 = 95%-CI, n.s. = non-significant
[6] = HEK293 stably expressing hOCT3, 0.05 μM [3H]MPP+, 10 min pre-incubation, 10 min uptake, brackets in Table S1 = 95%-CI, n.s. = non-significant
[7] = HEK293 stably expressing hOCT1, 0.05 μM [3H]MPP+, 10 min pre-incubation, 10 min uptake, brackets in Table S1 = 95%-CI, n.s. = non-significant, read-out: IC50 hOCT1 (inhibitory potency, [3H]MPP+ uptake)
[8] = HEK293 stably expressing hOCT2, 0.05 μM [3H]MPP+, 10 min pre-incubation, 10 min uptake, brackets in Table S1 = 95%-CI, n.s. = non-significant, read-out: IC50 hOCT2 (inhibitory potency, [3H]MPP+ uptake)
[9] = HEK293 stably expressing hPMAT, 0.05 μM [3H]MPP+, 10 min pre-incubation, 10 min uptake, brackets in Table S1 = 95%-CI, n.s. = non-significant, read-out: IC50 hPMAT (inhibitory potency, [3H]MPP+ uptake)

Compound	IC50 (hOCT1 [1]) [µM]	IC50 (hOCT2) [µM]	IC50 hPMAT (inhibitory potency, [3H]MPP+ uptake) (hPMAT; [3])	Effect on substrate uptake by hOCT2 (in words) (hOCT2)	IC50 hOCT3 (inhibitory potency, [3H]MPP+ uptake) (hOCT3; [6])	Effect on substrate uptake by hOCT3 (in words) (hOCT3)	Effect on substrate uptake by hPMAT (in words) (hPMAT)	further results
CNC1(c2ccccc2F)CCCCC1=O (stereo not drawn) [2-Fluoro-deschloroketamine, 2-fluoro-deschloroketamine]	14.1	19.2	n.s.	–	–	–	–	IC50 (hOCT3): 265 µM
NC(=O)C[S+]([O-])C(c1ccccc1)c1ccccc1 (stereo not drawn) [Modafinil, modafinil]	–	–	n.s.	did not interact	n.s.	did not interact	did not interact	IC50 hOCT1 (inhibitory potency, [3H]MPP+ uptake) (hOCT1 [1]; [4]): n.s.; Effect on substrate uptake by hOCT1 (in words) (hOCT1 [1]): did not interact; IC50 hOCT2 (inhibitory potency, [3H]MPP+ uptake) (hOCT2; [5]): n.s.
CCC[C@@H](C(=O)c1ccccc1)N1CCCC1 [S- α -PVP, S- α -pyrrolidinovalerophenone]	1.07	15	n.s	–	–	–	increased uptake of substrate	IC50 (hOCT3): 457 µM
COC(=O)C(c1ccccc1)C1CCCCN1 (stereo not drawn) [Methylphenidate, methylphenidate]	0.36	28.8	n.s.	–	n.s.	–	–	–
CN(C)CCC[C@@]1(c2ccc(F)cc2)OCc2cc(C#N)ccc21 [S-Citalopram, S-citalopram]	–	–	–	–	–	–	–	IC50 (hOCT1 [1]; [7]): 7.15 µM; IC50 (hOCT2; [8]): 59.9 µM; IC50 (hPMAT; [9]): 160 µM
CN(C)CCc1c[nH]c2cccc(O)c12 [Psilocin, psilocin]	63.5	–	–	did not inhibit	n.s.	did not inhibit	did not inhibit	Effect on substrate uptake by hOCT1 (in words) (hOCT1 [1]): did not inhibit; IC50 hOCT2 (inhibitory potency, [3H]MPP+ uptake) (hOCT2; [5]): n.s.; IC50 (hPMAT): 698 µM
CCC1(c2ccccc2)C(=O)NC(=O)NC1=O [Phenobarbital, phenobarbital]	–	–	–	increased uptake of substrate	n.s.	not interacting	not interacting	IC50 hOCT1 (inhibitory potency, [3H]MPP+ uptake) (hOCT1 [1]; [4]): n.s.; Effect on substrate uptake by hOCT1 (in words) (hOCT1 [1]): increased uptake of substrate; IC50 hOCT2 (inhibitory potency, [3H]MPP+ uptake) (hOCT2; [5]): n.s.; IC50 (hPMAT): 1030 µM
COc1cccc(C2(O)CCCCC2CN(C)C)c1 (stereo not drawn) [Tramadol, tramadol]	5.6	64.1	–	fails to fully inhibit	n.s.	No interaction	fails to fully inhibit	IC50 (hPMAT): 74.2 µM; IC50 (hOCT1 [2]): 30 µM
CN(C)CCC[C@]1(c2ccc(F)cc2)OCc2cc(C#N)ccc21 [R-Citalopram, R-citalopram]	–	–	–	–	–	–	–	IC50 (hOCT1 [1]; [7]): 5.11 µM; IC50 (hOCT2; [8]): 46.6 µM; IC50 (hPMAT; [9]): 58.3 µM
CCC[C@H](C(=O)c1ccccc1)N1CCCC1 [R- α -PVP, R- α -pyrrolidinovalerophenone]	2.15	13.1	n.s.	–	–	–	increased uptake of substrate	IC50 (hOCT3): 1020 µM
CN(C)C[C@H]1CCCC[C@]1(O)c1cccc(O)c1 [O-Desmethyltramadol, O-desmethyltramadol]	24.2	372	n.s.	–	n.s.	No interaction	–	IC50 (hOCT1 [2]): 172 µM
CCN1/C(=C/c2ccc3ccccc3[n+]2CC)C=Cc2ccccc21 [Decynium-22]	–	–	–	–	–	–	–	IC50 (hOCT1 [1]; [7]): 2.66 µM; IC50 (hOCT2; [8]): 4.56 µM; IC50 (hOCT3; HEK293 stably expressing hOCT3, 0.05 μM [3H]MPP+, 10 min pre-incubation, 10 min uptake, brackets in Table S1 = 95%-CI, n.s. = non-significant, read-out: IC50 hOCT3 (inhibitory potency, [3H]MPP+ uptake)): 0.16 µM; IC50 (hPMAT; [9]): 0.35 µM

Source: publication PMC8657792, “Interaction Profiles of Central Nervous System Active Drugs at Human Organic Cation Transporters 1–3 and Human Plasma Membrane Monoamine Transporter” (International Journal of Molecular Sciences, 2021)
